How the values were obtained:
Assay in all cases: relative viability (nuclei count vs DMSO), 5 days (fraction); higher = more cells survive
[1] = compound: CC1=C(C(=NN1)C)CC2=C(C3=C(S2)N(C(=O)N(C3=O)C)CC(C)C)C(=O)N4C[C@@H](CO4)O + Nc1nc2[nH]cc(CCc3ccc(C(=O)N[C@@H](CCC(=O)O)C(=O)O)cc3)c2c(=O)[nH]1 [Pemetrexed] (partner 0.2 µM)
Outline: (§1)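 A single step with final 0.05% Triton X-100, 1% formaldehyde and 1 ug/ml Hoechst fixed the cells and stained nuclei 5 days after treatment. Lung cancer cell lines in 1536-well plates had been treated by pin tool the day after seeding with one drug alone or a fixed anchor-drug dose plus five library-drug doses (not always all listed) in √10 steps, and nuclei were counted on 4× images. Relative viability is the ratio of nuclei in treated wells to nuclei in vehicle wells, taken as the median of duplicate plates.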

IDH-C35 + Trametinib = compound: Cc1ccccc1C(C(=O)NC1CCCCC1)N(C(=O)Cn1ccnc1C)c1cccc(F)c1 [IDH-C35] + CC(=O)Nc1cccc(-n2c(=O)n(C3CC3)c(=O)c3c(Nc4ccc(I)cc4F)n(C)c(=O)c(C)c32)c1 [Trametinib] (partner 0.02 µM)
Outline: as §1

IDH-C35 + Foretinib = compound: Cc1ccccc1C(C(=O)NC1CCCCC1)N(C(=O)Cn1ccnc1C)c1cccc(F)c1 [IDH-C35] + COc1cc2c(Oc3ccc(NC(=O)C4(C(=O)Nc5ccc(F)cc5)CC4)cc3F)ccnc2cc1OCCCN1CCOCC1 [Foretinib] (partner 0.25 µM)
Outline: as §1

IDH-C35 + Pemetrexed = compound: Cc1ccccc1C(C(=O)NC1CCCCC1)N(C(=O)Cn1ccnc1C)c1cccc(F)c1 [IDH-C35] + Nc1nc2[nH]cc(CCc3ccc(C(=O)N[C@@H](CCC(=O)O)C(=O)O)cc3)c2c(=O)[nH]1 [Pemetrexed] (partner 0.2 µM)
Outline: as §1

Cell Line	relative viability ([1]; first compound 0.0025 µM)	relative viability ([1]; first compound 0.007906 µM)	relative viability ([1]; first compound 0.025 µM)	relative viability ([1]; first compound 0.07906 µM)	relative viability ([1]; first compound 0.25 µM)	relative viability (IDH-C35 + Trametinib; first compound 0.08 µM)	relative viability (IDH-C35 + Trametinib; first compound 0.253 µM)	relative viability (IDH-C35 + Trametinib; first compound 0.8 µM)	relative viability (IDH-C35 + Trametinib; first compound 2.53 µM)	relative viability (IDH-C35 + Trametinib; first compound 8 µM)	relative viability (IDH-C35 + Foretinib; first compound 0.08 µM)	relative viability (IDH-C35 + Foretinib; first compound 0.253 µM)	relative viability (IDH-C35 + Foretinib; first compound 0.8 µM)	relative viability (IDH-C35 + Foretinib; first compound 2.53 µM)	relative viability (IDH-C35 + Foretinib; first compound 8 µM)	relative viability (IDH-C35 + Pemetrexed; first compound 0.08 µM)	relative viability (IDH-C35 + Pemetrexed; first compound 0.253 µM)	relative viability (IDH-C35 + Pemetrexed; first compound 0.8 µM)	relative viability (IDH-C35 + Pemetrexed; first compound 2.53 µM)	relative viability (IDH-C35 + Pemetrexed; first compound 8 µM)
NCI-H2347	0.434	0.438	0.41	0.378	0.383	0.342	0.281	0.323	0.28	0.283	1.19	0.992	0.799	0.955	1.01	0.424	0.418	0.452	0.417	0.43
NCI-H1993	0.651	0.623	0.609	0.607	0.639	0.479	0.586	0.632	0.542	0.645	0.797	0.688	0.811	0.787	0.759	0.527	0.628	0.677	0.598	0.637
NCI-H322M	0.526	0.61	0.645	0.629	0.578	0.451	0.485	0.55	0.488	0.507	0.93	0.886	0.945	0.916	0.983	0.622	0.554	0.644	0.578	0.608
NCI-H838	0.261	0.229	0.236	0.243	0.224	0.579	0.505	0.508	0.507	0.503	1.07	0.991	0.95	0.998	1.03	0.241	0.248	0.272	0.255	0.235
HARA	0.218	0.215	0.262	0.273	0.255	0.562	0.649	0.601	0.56	0.76	0.876	0.906	0.885	–	1.01	0.278	0.239	0.326	0.256	0.254
NCI-H2087	0.575	0.675	0.629	0.587	0.695	0.211	0.226	0.264	0.265	0.197	0.953	0.924	1.15	–	1.17	0.732	0.592	0.678	0.647	0.697
NCI-H1437	0.341	0.322	0.331	0.354	0.316	0.514	0.522	0.534	0.51	0.489	1.29	1.28	1.25	1.29	1.23	0.35	0.291	0.362	0.299	0.296
NCI-H2342	0.748	0.859	0.719	0.72	0.65	0.771	0.762	0.769	0.767	0.736	0.969	1.02	1.17	1.16	1.01	0.78	0.742	0.775	0.768	0.679
ChaGo-K-1	0.26	0.261	0.261	0.254	0.249	0.897	0.878	0.944	0.844	0.899	0.871	0.973	0.913	0.928	0.839	0.244	0.27	0.273	0.265	0.248
NCI-H650	0.983	0.989	0.775	0.949	0.957	1.03	0.935	0.861	–	0.914	1.03	1.04	1.05	–	0.981	0.911	0.96	0.893	–	0.893
COR-L23	0.22	0.214	0.195	0.223	0.204	0.599	0.639	0.591	0.565	0.54	0.969	0.95	0.891	1.01	1.03	0.18	0.205	0.2	0.201	0.173
COR-L 105	1.27	1.15	1.06	1.24	1.35	0.444	0.451	0.446	0.485	0.39	0.948	1.16	0.898	1.07	0.898	1.03	1.19	0.954	0.912	1
LK-2	0.307	0.347	0.245	0.3	0.257	0.719	0.762	0.735	0.779	0.745	1.23	1.36	1.27	1.12	1.48	0.259	0.322	0.255	0.22	0.202
201T	0.311	0.342	0.322	0.309	0.32	0.727	0.7	0.718	0.701	0.676	1.12	1.06	1.08	1.01	1.05	0.329	0.351	0.367	0.343	0.321
NCI-H596	0.481	0.544	0.484	0.481	0.488	0.892	0.722	0.808	0.746	0.737	0.948	0.796	0.775	–	0.763	0.473	0.475	0.529	0.549	0.455
H3255	0.632	0.576	0.496	0.618	0.563	0.699	0.692	0.536	0.548	0.59	1.06	0.838	0.886	1.04	0.854	0.595	0.589	0.573	0.632	0.499

Cell Line	relative viability ([1]; first compound 0.0025 µM)	relative viability ([1]; first compound 0.007906 µM)	relative viability ([1]; first compound 0.025 µM)	relative viability ([1]; first compound 0.07906 µM)	relative viability ([1]; first compound 0.25 µM)	relative viability (IDH-C35 + Trametinib; first compound 0.08 µM)	relative viability (IDH-C35 + Trametinib; first compound 0.253 µM)	relative viability (IDH-C35 + Trametinib; first compound 0.8 µM)	relative viability (IDH-C35 + Trametinib; first compound 2.53 µM)	relative viability (IDH-C35 + Trametinib; first compound 8 µM)	relative viability (IDH-C35 + Foretinib; first compound 0.08 µM)	relative viability (IDH-C35 + Foretinib; first compound 0.253 µM)	relative viability (IDH-C35 + Foretinib; first compound 0.8 µM)	relative viability (IDH-C35 + Foretinib; first compound 2.53 µM)	relative viability (IDH-C35 + Foretinib; first compound 8 µM)	relative viability (IDH-C35 + Pemetrexed; first compound 0.08 µM)	relative viability (IDH-C35 + Pemetrexed; first compound 0.253 µM)	relative viability (IDH-C35 + Pemetrexed; first compound 0.8 µM)	relative viability (IDH-C35 + Pemetrexed; first compound 2.53 µM)	relative viability (IDH-C35 + Pemetrexed; first compound 8 µM)
NCI-H647	0.194	0.177	0.173	0.199	0.195	0.488	0.378	0.444	0.473	0.47	1.36	1.13	1.28	1.17	1.02	0.186	0.161	0.175	0.171	0.167
NCI-H2023	0.249	0.258	0.224	0.233	0.225	0.476	0.503	0.548	0.528	0.475	0.918	1	1.09	0.76	0.839	0.262	0.246	0.245	0.241	0.2
NCI-H23	0.825	0.635	0.689	0.697	0.697	0.347	0.456	0.282	0.392	0.325	0.912	1.03	1.1	1.04	0.846	0.642	0.848	0.625	0.773	0.652
NCI-H1944	0.614	0.681	0.609	0.594	0.622	0.392	0.421	0.42	0.332	0.393	0.91	0.934	0.888	0.827	0.798	0.591	0.67	0.562	0.612	0.568
NCI-H1793	0.973	1.13	0.883	0.825	0.609	0.42	0.45	0.374	0.472	0.401	0.753	0.81	0.724	–	0.624	0.759	0.783	0.804	1.04	0.854
NCI-H520	0.731	0.711	0.468	0.526	0.504	0.645	0.669	0.818	0.665	0.721	0.788	0.749	0.821	0.72	0.654	0.776	0.548	0.715	0.699	0.622
NCI-H460	0.0637	0.0564	0.0621	0.0635	0.0733	0.165	0.133	0.176	0.165	0.0866	1.02	1.01	1.02	0.989	0.904	0.0621	0.0643	0.0648	0.0655	0.0759
EKVX	0.365	0.429	0.412	0.293	0.422	0.398	0.279	0.37	0.353	0.277	0.832	1.02	0.75	0.703	0.614	0.443	0.332	0.395	0.369	0.42
NCI-H358	0.172	0.185	0.159	0.157	0.181	0.132	0.152	0.128	0.159	0.144	0.757	0.738	0.685	0.769	0.603	0.168	0.179	0.175	0.184	0.172
EPLC-272H	0.356	0.333	0.41	0.301	0.348	0.259	0.308	0.324	–	0.257	0.659	0.828	0.751	0.71	0.733	0.276	0.388	0.397	0.34	0.394
NCI-H1395	0.925	0.791	0.827	0.796	0.718	1.12	1.05	1.05	0.903	0.919	0.972	0.976	1.07	0.896	0.971	0.869	0.882	0.866	0.989	0.925
NCI-H2126	0.766	0.737	0.63	0.6	0.739	0.568	0.563	0.564	0.519	0.537	1.14	1.22	1.15	1.14	1.06	0.68	0.703	0.696	0.597	0.668
LXF-289	0.88	0.811	0.751	0.922	0.975	0.701	0.628	0.643	0.676	0.668	0.969	0.94	1.01	1.01	0.969	1.02	0.857	0.859	0.894	0.797
NCI-H2009	1.09	1.03	0.955	1.03	1.06	0.29	0.308	0.314	0.34	0.288	1.17	1.28	1.24	1.13	1.18	1.02	0.968	0.936	1.01	0.936
SW 900	0.489	0.456	0.489	0.529	0.434	0.855	0.773	–	0.91	0.767	0.729	0.909	0.877	0.6	0.926	0.51	0.459	–	0.506	0.485
NCI-H2405	1.15	1.22	1.03	1	0.795	0.66	0.679	0.59	0.58	0.589	1.04	1.04	1.06	1.14	1.05	1.05	1.07	0.93	1.24	1.08

Source: the supplement of paper PMC10307832
